Results: paper PMC8037569, “Neuroprotective Effect of Aurantio-Obtusin, a Putative Vasopressin V1A Receptor Antagonist, on Transient Forebrain Ischemia Mice Model” (International Journal of Molecular Sciences, 2021)

Columns and labels:
[1] = molecular target: T1, hD3 receptor (Homo sapiens, UniProt P35462); experiment: GPCR functional assay: cAMP modulation by HTRF in transfected CHO cells; type: cell-based; conditions: 100 µM test compound
T1 construct: host or cells: CHO

[2] = tested on: C57BL/6 mice; experiment: Transient forebrain ischemia (BCCAO) mice model, overall effect and tolerability; type: in vivo
Protocol: […]. The animals were housed five per cage, allowed access to water and food ad libitum; the environment was maintained at a constant temperature (23 ± 1 °C) and humidity (60 ± 10%) under a 12-h light/dark cycle (the lights were on from 07:30 to 19:30 h). Forty mice were divided equally into four groups (sham + vehicle, n = 10; sham + drug, n = 10; bilateral common carotid artery occluded ischemia + vehicle, n = 10; bilateral common carotid artery occluded ischemia + drug, n = 10) for experiment. The treatment and maintenance of the animals were carried out in accordance with the Animal Care and Use Guidelines of Dong-A University, Korea. All in vivo experiments were performed according to the protocols approved by the Institutional Animal Care and Use Committee of Dong-A University (approved protocol numbers: DIACUC-approved-17-20) and were in accordance with the National Institutes of Health guidelines.
C57BL/6 mice were anesthetized with 2.0% isoflurane and 70% nitrous oxide in oxygen and subjected to transient forebrain ischemia. The transient forebrain ischemia was induced by bilateral common carotid artery occlusion (BCCAO) with aneurysm clips for 20 min, and the circulation was restored by removing the clips. […] The regional cerebral blood flow (rCBF) was monitored using laser Doppler flowmetry (Perimed, PF5010, JarFalla, Sweden). […]

[3] = tested on: rat; design: method as in PMID 31547563; conditions: cited from earlier work
[4] = tested on: C57BL/6 mice; experiment: Nissl staining, severity of neuronal damage after transient forebrain ischemia (BCCAO); type: in vivo, mouse; conditions: 10 mg/kg, p.o., vs BCCAO group, score 0 to 3, n = 6/group
Protocol: Male C57BL/6 mice (22–26 g, 7 weeks) were purchased from the Orient Co. Ltd., a branch of Charles River Laboratories (Seoul, Korea), and kept in the University Animal Care Unit for 1 week prior to the experiments. The animals were housed five per cage, allowed access to water and food ad libitum; the environment was maintained at a constant temperature (23 ± 1 °C) and humidity (60 ± 10%) under a 12-h light/dark cycle (the lights were on from 07:30 to 19:30 h). Forty mice were divided equally into four groups (sham + vehicle, n = 10; sham + drug, n = 10; bilateral common carotid artery occluded ischemia + vehicle, n = 10; bilateral common carotid artery occluded ischemia + drug, n = 10) for experiment. The treatment and maintenance of the animals were carried out in accordance with the Animal Care and Use Guidelines of Dong-A University, Korea. All in vivo experiments were performed according to the protocols approved by the Institutional Animal Care and Use Committee of Dong-A University (approved protocol numbers: DIACUC-approved-17-20) and were in accordance with the National Institutes of Health guidelines.
C57BL/6 mice were anesthetized with 2.0% isoflurane and 70% nitrous oxide in oxygen and subjected to transient forebrain ischemia. The transient forebrain ischemia was induced by bilateral common carotid artery occlusion (BCCAO) with aneurysm clips for 20 min, and the circulation was restored by removing the clips. Mice that received the same surgical operation without carotid artery clipping served as sham-operated controls. During the surgical procedure, the rectal temperature was maintained at 37 ± 0.5 °C with a heating pad (Biomed S.L., Barcelona, Spain). The regional cerebral blood flow (rCBF) was monitored using laser Doppler flowmetry (Perimed, PF5010, JarFalla, Sweden). […] After reperfusion, the animals were placed in a warm incubator (32–33 °C) and returned to their home cages. Aurantio-obtusin, which was dissolved in 10% Tween 80 solution, was administered from 1 h to 7 days after BCCAO (10 mg/kg, p.o., once daily).
One day after the test trial of passive avoidance test, mice were anesthetized with Zoletil 50® (10 mg/kg, i.m.) and then perfused transcardially with a 100 mM phosphate buffer (pH 7.4) followed by ice-cold 4% paraformaldehyde. The brains of the mice were removed and post-fixed in a phosphate buffer (50 mM, pH 7.4) containing 4% paraformaldehyde overnight, then immersed in a 30% sucrose solution (in 50 mM phosphate-buffered saline, PBS), and stored at 4 °C until sectioned. The frozen brains were coronally sectioned on a cryostat at 30 μm and then stored in a storage solution (30% ethylene glycol, 30% glycerin, and 20 mM phosphate buffer) at 4 °C. Hippocampal sections were collected based on the mouse brain atlas.
After the sections were mounted onto gelatin-coated slides, they were stained with 0.5% cresyl violet, dehydrated through graded alcohols (70, 80, 90, and 100% × 2), placed in xylene, and covered with a coverslip after the addition of Histomount media. The number of cells in selected regions (medial CA1, mCA1; dorsal CA1, dCA1; CA2; cortex) were determined using a computerized image analysis system (Leica Microsystems AG, Wetzlar, Germany). The cells were counted in six sections by every eight sections interval (total 48 sections) per animal by a person blind to the treatment group, and the average cell count per section was computed. The degree of damage by the Nissl staining after ischemia was semiquantitatively scored from 0 to 3 (0, normal; 1, <30% of the neurons were irreversibly damaged; 2, 30–60% of the neurons were irreversibly damaged; 3, 60–100% of the neurons were irreversibly damaged).

[5] = tested on: angiotensin-converting enzyme (ACE); design: method as in PMID 18803227; conditions: cited from earlier work
[6] = molecular target: T2, hV1AR (Homo sapiens, UniProt P37288); experiment: GPCR functional assay: intracellular Ca2+ mobilization in transfected CHO cells; type: cell-based
T2 construct: host or cells: CHO

[7] = molecular target: T3, hNK1R (Homo sapiens, UniProt P25103); experiment: GPCR functional assay: intracellular Ca2+ mobilization in U373MG cells; type: cell-based
T3 construct: Human endogenous (U373MG cells); host or cells: U373MG
T3 sequence (P25103 whole entry): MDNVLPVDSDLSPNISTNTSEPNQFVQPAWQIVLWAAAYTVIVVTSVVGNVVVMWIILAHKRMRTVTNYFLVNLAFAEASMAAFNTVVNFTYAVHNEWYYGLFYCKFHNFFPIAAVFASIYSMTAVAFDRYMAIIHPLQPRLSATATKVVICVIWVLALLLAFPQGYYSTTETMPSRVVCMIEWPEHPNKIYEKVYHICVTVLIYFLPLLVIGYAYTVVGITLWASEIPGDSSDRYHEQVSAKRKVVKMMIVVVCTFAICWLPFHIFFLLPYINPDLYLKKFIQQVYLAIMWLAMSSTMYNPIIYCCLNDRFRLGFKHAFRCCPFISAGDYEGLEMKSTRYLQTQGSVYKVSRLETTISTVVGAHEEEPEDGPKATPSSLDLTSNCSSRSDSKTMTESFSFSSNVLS

T2 sequence (P37288 whole entry): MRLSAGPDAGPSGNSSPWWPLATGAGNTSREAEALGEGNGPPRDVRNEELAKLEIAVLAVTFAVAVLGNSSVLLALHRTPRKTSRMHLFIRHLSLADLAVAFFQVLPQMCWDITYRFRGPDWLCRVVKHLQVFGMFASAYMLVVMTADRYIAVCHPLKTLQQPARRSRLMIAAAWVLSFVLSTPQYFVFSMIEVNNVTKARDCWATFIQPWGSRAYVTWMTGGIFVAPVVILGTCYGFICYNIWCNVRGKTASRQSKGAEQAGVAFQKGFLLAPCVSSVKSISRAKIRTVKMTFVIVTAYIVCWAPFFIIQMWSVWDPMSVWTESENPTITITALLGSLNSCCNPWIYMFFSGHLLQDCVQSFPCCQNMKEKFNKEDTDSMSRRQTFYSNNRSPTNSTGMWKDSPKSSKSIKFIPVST
T1 sequence (P35462 whole entry): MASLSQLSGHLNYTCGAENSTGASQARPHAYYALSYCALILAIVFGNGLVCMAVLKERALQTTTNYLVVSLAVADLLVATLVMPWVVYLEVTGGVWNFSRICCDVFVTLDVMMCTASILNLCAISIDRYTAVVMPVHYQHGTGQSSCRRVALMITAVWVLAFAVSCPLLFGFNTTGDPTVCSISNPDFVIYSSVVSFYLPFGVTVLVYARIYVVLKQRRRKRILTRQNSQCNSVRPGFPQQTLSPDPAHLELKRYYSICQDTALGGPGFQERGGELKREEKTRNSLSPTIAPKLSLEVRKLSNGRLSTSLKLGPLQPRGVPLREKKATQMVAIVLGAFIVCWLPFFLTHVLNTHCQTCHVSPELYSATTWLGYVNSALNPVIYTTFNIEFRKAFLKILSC

In the case of COc1c(O)cc2c(c1O)C(=O)c1c(cc(C)c(O)c1OC)C2=O [Aurantio-obtusin, 1,3,7-trihydroxy-2,8-dimethoxy-6-methylanthracene-9,10-dione], the “% Stimulation (agonist effect) of control agonist response, D3 (h)” value ([1]; control response to 300 nM dopamine) is reported as 33.00 ± 1.84%, the inhibition at 100 µM ([1]; CHO, agonist response of 10 nM dopamine, read-out: % Inhibition (antagonist effect) of control agonist response, D3 (h) (converted)) is reported as -2.3% and the “Toxicity of treatment alone (sham + drug)” value ([2]; 10 mg/kg, p.o., once daily, compared to sham group) is reported as “no toxicity”. For the same compound, the “Effect in BCCAO model, pilot study” value ([2]; 1, 5 and 10 mg/kg tested, result for 10 mg/kg) was “effective”, the Dose causing hepatoxicity [3] was over 40 mg/kg and the “Severity of neuronal damage in CA2” value [4] was “not in CA2 region”. The “Severity of neuronal damage in cortex” value [4] was “significantly reduced the severity of damage”, the “Severity of neuronal damage in dCA1” value [4] was “significantly reduced the severity of damage” and the “Severity of neuronal damage in mCA1” value [4] was “significantly reduced the severity of damage”. For the same compound, the “Severity of neuronal damage in cortex” value ([4]; listed as Aurnatio-obtusin) was “significantly reduced the severity”, the “Severity of neuronal damage in dCA1” value ([4]; listed as Aurnatio-obtusin) was “significantly reduced the severity” and the “Severity of neuronal damage in mCA1” value ([4]; listed as Aurnatio-obtusin) was “significantly reduced the severity”. The “Inhibition of ACE activity” value [5] was “no activity”, the “% Stimulation (agonist effect) of control agonist response, V1A (h)” value ([6]; 100 µM test compound, control response to 1 μM AVP) was −33.20 ± 2.69% and the inhibition at 100 µM ([6]; CHO, 100 µM test compound, control response to 10 nM AVP, read-out: % Inhibition (antagonist effect) of control agonist response, V1A (h) (converted)) was 71.8%. The IC50 ([6]; concentrations up to 100 µM, control response to 10 nM AVP, read-out: V1AR antagonist effect IC50) was 67.7 ± 2.41 µM, the “% Stimulation (agonist effect) of control agonist response, NK1 (h)” value ([7]; 100 µM test compound, control response to 30 nM [Sar9, Met(O2)11]-SP) was −6.40 ± 0.00% and the inhibition at 100 µM ([7]; U373 MG, read-out: % Inhibition (antagonist effect) of control agonist response, NK1 (h) (converted)) was 47.6%.
